Data from patent US9562021B2, “Histone deacetylase inhibitors and compositions and methods of use thereof” (CHDI Foundation, Inc., priority 2013, dated 2017).
Where two headings read alike, the source gives them in different places.

Key:
[1] = test system: Boc-Lys(Ac); assay: Boc-Lys(Ac) IC50; assay type: cell-based
[2] = test system: cellular histone deacetylase activity in Jurkat E6-1 cells; assay: Inhibition of cellular HDAC activity, Boc-Lys(Tfa)-AMC substrate; assay type: cell-based; details: Homo sapiens, Class IIa selective substrate
Description: The potency of exemplifying compounds described herein is quantified by measuring the cellular histone deacetylase enzymatic activity using the Class IIa selective substrate, Boc-Lys(Tfa)-AMC. After penetration in Jurkat E6-1 cells, the substrate is deacetylated to Boc-Lys-AMC. After cell lysis and cleavage by trypsin, the fluorophore AMC is released from the deacetylated substrate only. The fluoresence of the sample is directly related to the histone deacetylase activity in the sample.
Jurkat E6.1 Cell Culture and Plating. Jurkat E6.1 cells are cultured according to standard cell culture protocols in Jurkat E6.1 Growth Media (RPMI without phenol red, 10% FBS, 10 mM HEPES, and 1 mM Sodium Pyruvate). Jurkat E6.1 cells are counted using a Coulter Counter and resuspended in Jurkat E6.1 growth media at a concentration of 75,000 cells/35 μL. 35 μL or 75,000 cells is seeded into Greiner microtitre assay plates. The plates are then incubated at 37° C. and 5% CO2 while other assay components are being prepared.
Serially Dilute HDAC Inhibitor Compounds. […]
Assay. […] Finally the top read fluorescence (Excitation: 355 nm, Emission: 460 nm) is measured using PerkinElmer EnVision.

[3] = molecular target: T1, HDAC4 (Homo sapiens, UniProt P56524); assay: HDAC4 (bioch) IC50; assay type: biochemical
T1 sequence (P56524 whole entry): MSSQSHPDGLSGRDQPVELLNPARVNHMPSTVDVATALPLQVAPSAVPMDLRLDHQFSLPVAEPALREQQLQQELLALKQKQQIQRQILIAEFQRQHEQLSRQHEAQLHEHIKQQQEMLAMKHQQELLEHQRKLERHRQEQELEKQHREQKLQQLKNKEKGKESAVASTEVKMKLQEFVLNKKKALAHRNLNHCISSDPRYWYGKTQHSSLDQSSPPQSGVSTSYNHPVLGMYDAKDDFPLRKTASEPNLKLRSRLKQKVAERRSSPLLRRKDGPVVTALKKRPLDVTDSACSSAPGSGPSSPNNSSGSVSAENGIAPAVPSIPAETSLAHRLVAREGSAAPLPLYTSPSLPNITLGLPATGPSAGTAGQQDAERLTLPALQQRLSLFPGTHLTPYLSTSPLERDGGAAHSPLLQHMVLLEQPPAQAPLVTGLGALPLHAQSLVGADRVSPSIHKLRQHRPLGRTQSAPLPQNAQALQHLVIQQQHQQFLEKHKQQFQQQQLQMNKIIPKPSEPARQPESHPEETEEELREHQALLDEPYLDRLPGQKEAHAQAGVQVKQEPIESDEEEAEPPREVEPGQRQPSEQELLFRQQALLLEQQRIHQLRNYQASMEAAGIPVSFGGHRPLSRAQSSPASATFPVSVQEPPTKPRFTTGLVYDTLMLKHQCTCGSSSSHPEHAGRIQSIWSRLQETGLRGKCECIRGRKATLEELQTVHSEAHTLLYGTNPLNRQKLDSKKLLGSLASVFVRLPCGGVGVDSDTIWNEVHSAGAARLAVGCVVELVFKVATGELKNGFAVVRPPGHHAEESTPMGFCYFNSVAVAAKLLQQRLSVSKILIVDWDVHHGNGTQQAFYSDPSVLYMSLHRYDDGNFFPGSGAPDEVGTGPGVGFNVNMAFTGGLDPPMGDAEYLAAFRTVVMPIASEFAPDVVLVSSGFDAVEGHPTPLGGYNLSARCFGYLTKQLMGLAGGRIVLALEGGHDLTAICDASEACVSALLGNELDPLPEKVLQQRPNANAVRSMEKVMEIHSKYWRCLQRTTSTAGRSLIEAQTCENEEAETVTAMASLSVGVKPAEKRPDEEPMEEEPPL

[4] = Hepatic microsomal stability, mouse; assay type: in vitro ADME; details: mouse liver microsomes
[5] = MDCK apparent permeability (Papp A>B); assay type: in vitro ADME; details: dog, pH 7.4
[6] = molecular target: T1, HDAC4; assay: HDAC4 (cell) IC50; assay type: cell-based; details: Table 3
[7] = PK study (iv and po 10 mg/kg), plasma, brain and muscle; assay type: in vivo; details: for clearance: read-out: Clearance (CLp) (converted); for Vd: read-out: Volume of Distribution at Steady State (Vdss)
[8] = molecular target: T2, HDAC8 (Homo sapiens, UniProt Q9BY41); assay: cat. HDAC8 IC50; assay type: biochemical
T2 sequence (Q9BY41 1-377): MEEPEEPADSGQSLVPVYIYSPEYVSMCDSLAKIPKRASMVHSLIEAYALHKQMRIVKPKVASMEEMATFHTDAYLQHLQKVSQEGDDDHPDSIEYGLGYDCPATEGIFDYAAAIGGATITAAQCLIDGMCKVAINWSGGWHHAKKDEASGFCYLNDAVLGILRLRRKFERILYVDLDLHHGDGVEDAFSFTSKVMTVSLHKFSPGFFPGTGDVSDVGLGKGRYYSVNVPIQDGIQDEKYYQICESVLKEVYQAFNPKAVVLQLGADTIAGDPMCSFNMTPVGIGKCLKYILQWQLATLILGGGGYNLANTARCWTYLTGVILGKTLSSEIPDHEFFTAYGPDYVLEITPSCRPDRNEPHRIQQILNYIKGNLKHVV

[9] = molecular target: HDAC3 (Homo sapiens, UniProt O15379); assay: cat. HDAC3 IC50; assay type: biochemical
Sequence of HDAC3 (O15379 whole entry, the tested form may be a part): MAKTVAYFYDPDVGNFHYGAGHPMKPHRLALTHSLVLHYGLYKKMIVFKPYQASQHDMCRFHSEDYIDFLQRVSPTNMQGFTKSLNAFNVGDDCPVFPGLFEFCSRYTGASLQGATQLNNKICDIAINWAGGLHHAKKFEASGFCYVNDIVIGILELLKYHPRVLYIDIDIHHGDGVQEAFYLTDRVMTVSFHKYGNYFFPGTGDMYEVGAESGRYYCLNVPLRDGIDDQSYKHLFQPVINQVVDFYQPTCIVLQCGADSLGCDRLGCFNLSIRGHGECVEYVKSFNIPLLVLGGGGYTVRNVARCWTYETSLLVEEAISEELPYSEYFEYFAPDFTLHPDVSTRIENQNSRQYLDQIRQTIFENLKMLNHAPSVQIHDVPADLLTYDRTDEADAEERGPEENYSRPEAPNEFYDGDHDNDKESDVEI
Sequence of HDAC3 (Q9Y618 395-489 partner limits assumed): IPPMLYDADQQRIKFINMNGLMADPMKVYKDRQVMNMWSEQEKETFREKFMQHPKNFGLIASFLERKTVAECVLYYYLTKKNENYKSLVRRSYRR

[10] = molecular target: T3, human HDAC5 catalytic domain (Homo sapiens, UniProt Q9UQL6); assay: Inhibition of HDAC5 catalytic domain, Boc-Lys(Tfa)-AMC substrate; assay type: biochemical
T3 construct: amino acids 657-1123 with a C-terminal His tag; His (C); purchased BPS BioScience; host or cells: baculovirus expression system
T3 sequence (Q9UQL6 656-1122): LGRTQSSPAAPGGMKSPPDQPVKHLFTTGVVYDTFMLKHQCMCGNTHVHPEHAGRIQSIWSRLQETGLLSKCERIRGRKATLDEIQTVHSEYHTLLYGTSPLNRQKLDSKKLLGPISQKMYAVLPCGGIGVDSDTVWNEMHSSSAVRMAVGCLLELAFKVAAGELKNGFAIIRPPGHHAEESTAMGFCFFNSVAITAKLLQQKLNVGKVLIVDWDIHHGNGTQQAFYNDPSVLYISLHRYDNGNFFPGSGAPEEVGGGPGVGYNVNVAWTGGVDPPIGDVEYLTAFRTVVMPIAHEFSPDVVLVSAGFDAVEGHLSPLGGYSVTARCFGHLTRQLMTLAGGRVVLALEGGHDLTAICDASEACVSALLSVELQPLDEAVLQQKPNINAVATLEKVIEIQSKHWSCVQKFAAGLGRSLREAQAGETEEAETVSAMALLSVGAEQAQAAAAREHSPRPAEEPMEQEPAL

[11] = molecular target: T4, human HDAC7 (Homo sapiens, UniProt Q8WUI4); assay: Inhibition of HDAC7, Boc-Lys(Tfa)-AMC substrate; assay type: biochemical
T4 construct: amino acids 518-end with a N-terminal Glutathione S-transferase (GST) tag; GST (N); purchased BPS BioScience; host or cells: baculovirus expression system
T4 sequence (Q8WUI4 518-952 limits assumed): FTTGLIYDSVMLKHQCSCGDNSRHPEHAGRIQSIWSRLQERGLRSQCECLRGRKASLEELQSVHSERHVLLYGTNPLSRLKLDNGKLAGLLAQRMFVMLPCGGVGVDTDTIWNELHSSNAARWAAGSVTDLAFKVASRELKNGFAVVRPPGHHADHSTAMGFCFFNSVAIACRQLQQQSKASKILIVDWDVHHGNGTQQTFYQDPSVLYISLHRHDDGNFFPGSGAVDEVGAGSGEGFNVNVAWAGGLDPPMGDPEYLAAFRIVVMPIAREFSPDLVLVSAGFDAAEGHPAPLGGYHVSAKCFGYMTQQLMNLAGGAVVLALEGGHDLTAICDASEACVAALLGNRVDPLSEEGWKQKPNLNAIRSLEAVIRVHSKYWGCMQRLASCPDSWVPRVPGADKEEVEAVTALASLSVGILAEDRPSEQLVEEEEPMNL

[12] = molecular target: T5, HDAC6 (Homo sapiens, UniProt Q9UBN7); assay: cat. HDAC6 IC50; assay type: biochemical
T5 sequence (Q9UBN7 1-1215): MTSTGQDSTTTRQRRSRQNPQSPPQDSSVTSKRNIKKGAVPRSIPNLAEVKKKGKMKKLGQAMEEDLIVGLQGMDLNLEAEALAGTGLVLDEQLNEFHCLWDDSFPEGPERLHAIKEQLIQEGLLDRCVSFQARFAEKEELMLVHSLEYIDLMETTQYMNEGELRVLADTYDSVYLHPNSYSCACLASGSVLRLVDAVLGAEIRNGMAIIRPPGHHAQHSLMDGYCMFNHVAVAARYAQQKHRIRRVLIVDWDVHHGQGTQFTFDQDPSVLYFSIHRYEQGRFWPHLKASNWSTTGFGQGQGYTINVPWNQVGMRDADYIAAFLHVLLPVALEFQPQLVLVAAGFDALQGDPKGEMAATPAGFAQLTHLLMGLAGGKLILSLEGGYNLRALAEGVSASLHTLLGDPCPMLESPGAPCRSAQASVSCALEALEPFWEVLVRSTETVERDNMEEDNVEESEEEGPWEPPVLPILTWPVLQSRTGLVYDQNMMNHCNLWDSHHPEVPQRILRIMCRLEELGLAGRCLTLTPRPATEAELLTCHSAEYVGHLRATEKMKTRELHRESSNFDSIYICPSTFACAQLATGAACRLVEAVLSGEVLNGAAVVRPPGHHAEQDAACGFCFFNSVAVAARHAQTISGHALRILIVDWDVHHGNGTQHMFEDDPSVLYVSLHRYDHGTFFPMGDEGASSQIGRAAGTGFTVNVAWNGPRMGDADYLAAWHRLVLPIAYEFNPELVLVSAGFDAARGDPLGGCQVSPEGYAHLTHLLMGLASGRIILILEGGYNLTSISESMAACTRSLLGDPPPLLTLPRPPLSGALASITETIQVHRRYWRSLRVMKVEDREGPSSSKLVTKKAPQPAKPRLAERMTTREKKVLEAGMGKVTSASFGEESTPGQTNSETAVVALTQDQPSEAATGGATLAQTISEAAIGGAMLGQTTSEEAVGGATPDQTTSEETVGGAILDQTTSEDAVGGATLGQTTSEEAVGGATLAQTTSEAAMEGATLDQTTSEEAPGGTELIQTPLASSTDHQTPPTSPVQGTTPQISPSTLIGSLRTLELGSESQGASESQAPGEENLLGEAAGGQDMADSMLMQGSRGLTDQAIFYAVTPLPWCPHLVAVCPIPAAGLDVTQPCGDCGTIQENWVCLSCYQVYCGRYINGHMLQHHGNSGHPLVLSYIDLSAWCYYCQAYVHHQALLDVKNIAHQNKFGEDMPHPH

[13] = molecular target: T6, human HDAC9 (Homo sapiens, UniProt Q9UKV0); assay: Inhibition of HDAC9, Boc-Lys(Tfa)-AMC substrate; assay type: biochemical
T6 construct: amino acids 604-1066 with a C-terminal His tag; His (C); purchased BPS BioScience; host or cells: baculovirus expression system
T6 sequence (Q9UKV0 604-1066 isoform Q9UKV0-5): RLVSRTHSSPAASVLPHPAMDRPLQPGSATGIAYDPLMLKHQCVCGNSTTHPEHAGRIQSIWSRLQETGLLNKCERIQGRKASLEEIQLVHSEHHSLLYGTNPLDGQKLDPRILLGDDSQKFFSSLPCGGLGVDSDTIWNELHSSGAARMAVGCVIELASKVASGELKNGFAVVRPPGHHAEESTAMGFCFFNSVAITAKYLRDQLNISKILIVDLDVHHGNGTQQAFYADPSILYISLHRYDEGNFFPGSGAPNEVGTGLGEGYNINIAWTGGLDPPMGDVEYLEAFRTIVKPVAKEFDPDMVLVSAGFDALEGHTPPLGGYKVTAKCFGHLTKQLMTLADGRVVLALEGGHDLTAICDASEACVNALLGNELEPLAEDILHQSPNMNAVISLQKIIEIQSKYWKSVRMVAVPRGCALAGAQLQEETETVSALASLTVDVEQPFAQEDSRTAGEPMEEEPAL

[14] = Table 3, read-out: IC50 μM (bioch)
[15] = 5 mg eq./Kg, IV PK, brain, read-out: Brain-plasma
[16] = 5 mg eq./Kg, IV PK, muscle section, read-out: Brain-plasma
[17] = 10 mg/Kg, Oral PK, brain, read-out: Brain-plasma
[18] = 10 mg/Kg, Oral PK, muscle, read-out: Muscle-plasma

SMILES | IC50 [1] [nM] | IC50 [2] [nM] | IC50 [3, 14] [µM] | MLM [4] [mL/min/kg BW] | Papp A→B at 1 h, 10 μM [5] [×10⁻⁶ cm/s] | IC50 [6] [µM] | half-life ([7]; 5 mg eq./Kg, IV PK, brain) [h] | Kp [7, 15] | half-life ([7]; 5 mg eq./Kg, IV PK, muscle) [h] | Kp [7, 16] | half-life ([7]; 5 mg eq./Kg, IV PK, plasma) [h] | clearance ([7]; 5 mg eq./Kg, IV PK, plasma) [mL/min/kg] | Vd ([7]; 5 mg eq./Kg, IV PK, plasma) [L/kg] | Kp [7, 17] | Kp [7, 18] | AUCnorm ([7]; IV PK, brain) [nM·kg·h/mg] | AUCnorm ([7]; IV PK, muscle) [nM·kg·h/mg] | AUCnorm ([7]; IV PK, plasma) [nM·kg·h/mg] | AUCnorm ([7]; Oral PK, brain) [nM·kg·h/mg] | AUCnorm ([7]; Oral PK, muscle) [nM·kg·h/mg] | further results
O=C(NO)C(c1ccccc1)c1ccc(-c2cncnc2)cc1 (centres unmarked) [drawing 19] |  |  | 0.09 | 77 | 17.5 | 0.55 | 2.2 | 0.12 to 2 | 4 | 1.1 to 8.9 | 1.8 | 107 | 2.6 | 0.15 to 1.4 | 1 to 8 | 162 | 835 | 516 | 58 | 306 | half-life ([7]; 10 mg/Kg, Oral PK, brain): 2.7 h; half-life ([7]; 10 mg/Kg, Oral PK, muscle): 4 h; half-life ([7]; 10 mg/Kg, Oral PK, plasma): 1.9 h; AUCnorm ([7]; Oral PK, plasma): 179 nM·kg·h/mg; Bioavaiability ([7]; Oral PK, plasma): 35%; Observed CmaxNorm ([7]; Oral PK, plasma): 257 nM·kg/mg
O=C(NO)C(c1ccc(N2CCOCC2)cc1)c1ccccc1F (centres unmarked) |  |  | 0.07 | 93 | 23.4 | 0.64 | 3.3 | 0.54 to 8.9 | 4.8 | 1.9 to 21 | 1.8 | 123 | 3.1 | 0.67 to 3.4 | 1.5 to 5.2 | 511 | 1048 | 409 | 151 | 260 | AUCnorm ([7]; Oral PK, plasma): 109 nM·kg·h/mg; Bioavaiability ([7]; Oral PK, plasma): 27%; Observed CmaxNorm ([7]; Oral PK, plasma): 95 nM·kg/mg
O=C(NO)C(c1ccccc1)c1ccc(-c2cncnc2)cc1 (centres unmarked) [drawing 21] |  |  |  |  |  |  |  |  |  |  |  |  |  |  |  |  |  |  |  |  | IC50 ([3]; Table 4, bioch, read-out: HDAC4): 0.09 µM; Fold Selectivity (bioch) HDAC8:HDAC4 [8]: 60; Fold Selectivity (bioch) HDAC3:HDAC4 [9]: 320; Fold Selectivity (bioch) HDAC5:HDAC4 [10]: 0.3; Fold Selectivity (bioch) HDAC7:HDAC4 [11]: 0.8; Fold Selectivity (bioch) HDAC6:HDAC4 [12]: 50; Fold Selectivity (bioch) HDAC9:HDAC4 [13]: 1

More lines, main results first:

IC50 [1] [nM] | IC50 [2] [nM] | IC50 [3, 14] [µM] | MLM [4] [mL/min/kg BW] | Papp A→B at 1 h, 10 μM [5] [×10⁻⁶ cm/s] | IC50 [6] [µM] | half-life ([7]; 5 mg eq./Kg, IV PK, brain) [h] | Kp [7, 15] | half-life ([7]; 5 mg eq./Kg, IV PK, muscle) [h] | Kp [7, 16] | half-life ([7]; 5 mg eq./Kg, IV PK, plasma) [h] | clearance ([7]; 5 mg eq./Kg, IV PK, plasma) [mL/min/kg] | Vd ([7]; 5 mg eq./Kg, IV PK, plasma) [L/kg] | Kp [7, 17] | Kp [7, 18] | AUCnorm ([7]; IV PK, brain) [nM·kg·h/mg] | AUCnorm ([7]; IV PK, muscle) [nM·kg·h/mg] | AUCnorm ([7]; IV PK, plasma) [nM·kg·h/mg] | AUCnorm ([7]; Oral PK, brain) [nM·kg·h/mg] | AUCnorm ([7]; Oral PK, muscle) [nM·kg·h/mg] | SMILES | further results
> 50000 | 120 |  |  |  |  |  |  |  |  |  |  |  |  |  |  |  |  |  |  | Cc1ncc(-c2ccc(C(C(=O)NO)c3ccccc3F)cc2)cn1 (centres unmarked) [Compound 6, 2-(2-fluorophenyl)-N-hydroxy-2-(4-(2-methylpyrimidin-5-yl)phenyl)acetamide] | 
> 50000 | 59 |  |  |  |  |  |  |  |  |  |  |  |  |  |  |  |  |  |  | O=C(NO)C(c1ccc(-c2ncc(C(F)(F)F)cn2)cc1)c1ccccc1F (centres unmarked) [Compound 8, 2-(2-fluorophenyl)-N-hydroxy-2-(4-(5-(trifluoromethyl)pyrimidin-2-yl)phenyl)acetamide] | 
